Molecules are shown by their SMILES.

What all share (type): binding
The target in one test is T1, OsSPX4–OsPHR2 (Oryza sativa, UniProt Q10B79).
T1 construct: gene SPX4; OsSPX4 1-321 (cloning sentence prints OsSPX2 1-321, purification OsSPX4 1-321; His-Strep-Sumo tag cleaved) with full-length OsPHR2 1-426 (His-Strep-GB1 tag, TEV cleaved); E. coli; with Protein PHOSPHATE STARVATION RESPONSE 2
Nature of the test: isothermal titration calorimetry. A general note: In ITC the heat of successive injections is recorded.

The target in test [1] is T2, AtPHR1^280–360 (Arabidopsis thaliana, UniProt Q94CL7, K325A/H328A/R335A).
T2 construct: gene PHR1; coiled-coil domain fragment, residues 280-360, 6xHis tag cleaved by TEV, 15N,2H-labeled, E. coli
Description: […] TROSY NMR titration. The following applies: 25 mM HEPES pH 7.0, 200 mM NaCl, 0.5 mM TCEP, 30 °C.

Test [2] has as its target T3, AtPHR1^280–360 (Arabidopsis thaliana, UniProt Q94CL7).
T3 construct: gene PHR1; coiled-coil domain fragment, residues 280-360, 6xHis tag cleaved by TEV, 15N,2H-labeled, E. coli
Nature of the test: […] TROSY NMR titration. The following applies: 25 mM HEPES pH 7.0, 200 mM NaCl, 0.5 mM TCEP, 30 °C.

T1 sequence (Q10B79 whole entry): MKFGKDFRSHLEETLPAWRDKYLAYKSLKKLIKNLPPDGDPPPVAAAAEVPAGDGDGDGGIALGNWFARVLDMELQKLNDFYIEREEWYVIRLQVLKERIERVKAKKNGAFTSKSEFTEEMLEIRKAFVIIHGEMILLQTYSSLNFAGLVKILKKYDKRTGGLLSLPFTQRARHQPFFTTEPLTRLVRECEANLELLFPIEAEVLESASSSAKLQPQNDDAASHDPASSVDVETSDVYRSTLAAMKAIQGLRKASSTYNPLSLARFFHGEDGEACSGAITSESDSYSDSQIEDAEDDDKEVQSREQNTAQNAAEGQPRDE
T1 sequence (Q6Z156 whole entry partner): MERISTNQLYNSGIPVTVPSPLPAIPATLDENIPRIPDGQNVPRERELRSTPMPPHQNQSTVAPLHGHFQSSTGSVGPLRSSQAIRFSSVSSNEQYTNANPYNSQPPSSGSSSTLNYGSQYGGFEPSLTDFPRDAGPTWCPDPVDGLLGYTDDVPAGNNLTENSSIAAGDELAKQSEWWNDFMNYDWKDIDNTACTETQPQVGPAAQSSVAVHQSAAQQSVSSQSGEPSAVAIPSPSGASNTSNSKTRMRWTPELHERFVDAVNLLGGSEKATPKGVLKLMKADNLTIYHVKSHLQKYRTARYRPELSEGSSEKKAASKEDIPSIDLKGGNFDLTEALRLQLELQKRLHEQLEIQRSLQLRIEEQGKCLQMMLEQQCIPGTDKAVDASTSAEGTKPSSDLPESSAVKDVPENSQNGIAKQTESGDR
T3 sequence (Q94CL7 280-360): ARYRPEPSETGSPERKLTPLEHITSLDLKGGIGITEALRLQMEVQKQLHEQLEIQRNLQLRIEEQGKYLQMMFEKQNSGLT
T2 sequence (Q94CL7 280-360 K325A/H328A/R335A): as the sequence (Q94CL7 280-360) above, with K46A, H49A, R56A counted along it

Consider `O=P(O)(O)O[C@H]1[C@@H](OP(=O)(O)O)[C@H](OP(=O)(O)O)[C@@H](OP(=O)(O)OP(=O)(O)O)[C@H](OP(=O)(O)O)[C@H]1OP(=O)(O)O` [InsP7], for which the Kd (as a rule, the free concentration of one partner at which half of the binding sites on the other are occupied at equilibrium, for simple one-to-one binding) at OsSPX4–OsPHR2 is around 7 µM.
For `O=P(O)(O)O[C@@H]1[C@@H](OP(=O)(O)O)[C@H](OP(=O)(O)OP(=O)(O)O)[C@@H](OP(=O)(O)O)[C@H](OP(=O)(O)OP(=O)(O)O)[C@@H]1OP(=O)(O)O` [InsP8], the KD result at AtPHR1^280–360 [1] is “repeated the same set of experiments using the AtPHR1^KHR/A mutant protein”; at AtPHR1^280–360 [2], “The derived dissociation constant is in the millimolar range and saturation could not be reached”. This compound also returned an equilibrium dissociation constant (Kd) at OsSPX4–OsPHR2 of around 3 µM.
